Source: paper PMC5515969, “Effects of 31 FDA approved small-molecule kinase inhibitors on isolated rat liver mitochondria” (Archives of Toxicology, 2016)
Counter-ions that a name gives are not always drawn. Like-named read-outs stand apart in the source and are kept apart here.

Tests used:
[1] = system: isolated rat liver mitochondria; assay: Mitochondrial oxygen consumption (glutamate/malate or succinate driven, state 4 and state 3); type: biochemical; conditions: DMSO treated samples set as 1; on State 3 respiration driven by succinate at 10XCmax: key: 0 indicates that the drug had no effects (negative); on State 3 respiration driven by succinate at 1XCmax: key: 0 indicates that the drug had no effects (negative)
Method in brief: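 Oxygen uptake on glutamate/malate or on succinate defined state 4; ADP added 3 min later gave state 3. Mitochondria isolated from rat liver by differential centrifugation, adjusted to 1 mg/ml and pretreated 5 min with inhibitor (0.1% DMSO final). Values relative to DMSO control, set to 1.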

[2] = system: RCC I; assay: RCC I activity in submitochondrial particles; type: biochemical, rat; parameters: key to RCC I at 10XCmax / RCC I at 100XCmax / RCC I at 50XCmax / RCC I at 30XCmax / RCC I at 20XCmax: activity relative to DMSO-treated controls (control set as 1 = 100%); conditions: 10XCmax
Method in brief: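 Kinase inhibitors were preincubated 15 min with submitochondrial particles (1 mg/ml) before complex activities were measured. RCC I was the rotenone-sensitive portion (activity without minus with rotenone). RCC I/V was read at 340 nm and RCC II at 600 nm every 1 min for 6 min. RCC III and IV were read at 550 nm every 10 s for 2 min. Activities are normalized to DMSO controls set as 1.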

[3] = biological target: T1, RCC II (Rattus norvegicus, UniProt P21913+Q641Z9+Q6PCT8+Q920L2); assay: RCC II activity in submitochondrial particles; type: biochemical; parameters: key: activity relative to DMSO-treated controls (control set as 1 = 100%)
T1 construct: Submitochondrial particles were prepared by subjecting the intact mitochondria to three successive freeze–thaw cycles; from tissue; host or cells: rat liver mitochondria, used as submitochondrial particles
Method in brief: (§1)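 Absorbance kinetics: A340 (RCC I, V) and A600 (RCC II) read each minute over 6 min, A550 (RCC III, IV) every 10 s over 2 min; RCC I taken as […]. Particles (1 mg/ml) pretreated 15 min with compound; DMSO-treated activity = 1.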

[4] = system: RCC III; assay: RCC III activity in submitochondrial particles; type: biochemical, rat; parameters: key to RCC III at 100XCmax: activity relative to DMSO-treated controls (control set as 1 = 100%); conditions: 100XCmax
Method in brief: as §1

[5] = system: RCC IV; assay: RCC IV activity in submitochondrial particles; type: biochemical, rat; parameters: key to RCC IV at 50XCmax / RCC IV at 100XCmax: activity relative to DMSO-treated controls (control set as 1 = 100%); conditions: 50XCmax; DMSO treated samples set as 1; in %
Method in brief: as §1

[6] = system: RCC V; assay: RCC V activity in submitochondrial particles; type: biochemical, rat; on RCC V at 5XCmax: key: 0 indicates that the drug had no effects (negative)
Method in brief: as §1

[7] = system: isolated rat liver mitochondria; assay: Mitochondrial inner membrane potential (MMP), Rhodamine 123; type: biochemical; conditions: difference in signal between KI and DMSO treated samples at the end of experiments
Excerpt: Fig. 3 KI effects on mitochondrial inner membrane potential (MMP). […] In a, c, data are means and standard derivations from three separate experiments. *p < 0.05 as compared to DMSO-treated samples at the end of experiments. In b, data are means of two independent experiments

[8] = system: isolated rat liver mitochondria; assay: Mitochondrial swelling (absorbance at 535 nm); type: biochemical; conditions: difference in signal between KI and DMSO treated samples at the end of experiments; on Swelling 5XCmax: key: 0 indicates that the drug had no effects (negative)
[9] = Solubility of DMSO stock for 100X/50X Cmax testing; type: physicochemical
Excerpt: (§2) Supplement 204_2016_1918_MOESM3_ESM.xlsx, sheet "Sheet1" | column: 100 Cmax; 50 Cmax; note

[10] = system: isolated rat liver mitochondria; conditions: positive control alamethicin treated samples
[11] = cited from earlier work
[12] = in vivo; cited from earlier work
[13] = system: isolated rat liver mitochondria; assay: Mitochondrial ROS production (CM-H2DCFDA); conditions: DMSO treated samples set as 1
[14] = Solubility of drug in DMSO stock / reaction buffer at multiples of Cmax; type: physicochemical
Excerpt: as §2

[15] = parameters: method as in product labeling; conditions: ref product labeling, cited from earlier work
[16] = cited from earlier work; remark: listed apart in the source
[17] = 50XCmax, DMSO treated samples set as 1
[18] = relative to DMSO treated samples

T1 sequence (Q920L2 35-656): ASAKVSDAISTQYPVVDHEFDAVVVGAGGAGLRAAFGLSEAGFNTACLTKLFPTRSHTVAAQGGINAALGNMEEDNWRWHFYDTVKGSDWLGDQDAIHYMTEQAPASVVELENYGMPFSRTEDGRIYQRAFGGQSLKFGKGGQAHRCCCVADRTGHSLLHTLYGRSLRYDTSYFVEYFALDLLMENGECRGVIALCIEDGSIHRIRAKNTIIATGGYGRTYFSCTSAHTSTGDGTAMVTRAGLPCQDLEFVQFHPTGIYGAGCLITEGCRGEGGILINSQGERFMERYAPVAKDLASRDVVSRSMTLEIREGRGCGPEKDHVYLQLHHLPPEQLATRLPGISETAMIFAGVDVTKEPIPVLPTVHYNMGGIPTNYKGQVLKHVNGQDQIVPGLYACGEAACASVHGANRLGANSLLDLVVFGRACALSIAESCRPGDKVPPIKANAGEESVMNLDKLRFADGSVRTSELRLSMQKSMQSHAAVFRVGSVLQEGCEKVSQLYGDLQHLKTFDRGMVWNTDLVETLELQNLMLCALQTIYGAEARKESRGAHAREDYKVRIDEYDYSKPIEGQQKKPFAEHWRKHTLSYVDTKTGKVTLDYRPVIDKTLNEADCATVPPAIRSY
T1 sequence (P21913 31-282): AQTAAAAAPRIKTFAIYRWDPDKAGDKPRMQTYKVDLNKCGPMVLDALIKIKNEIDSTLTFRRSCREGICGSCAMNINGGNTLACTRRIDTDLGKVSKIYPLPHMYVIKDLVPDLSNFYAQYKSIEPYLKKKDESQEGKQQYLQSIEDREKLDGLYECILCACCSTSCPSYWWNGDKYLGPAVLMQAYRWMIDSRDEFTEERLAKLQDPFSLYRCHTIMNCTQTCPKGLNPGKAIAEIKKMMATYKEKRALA
T1 sequence (Q641Z9 1-169): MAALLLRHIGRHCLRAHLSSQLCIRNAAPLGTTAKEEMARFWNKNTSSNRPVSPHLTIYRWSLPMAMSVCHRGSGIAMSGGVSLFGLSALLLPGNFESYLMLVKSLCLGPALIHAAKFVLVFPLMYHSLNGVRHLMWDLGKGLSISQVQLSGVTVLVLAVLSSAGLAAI
T1 sequence (Q6PCT8 57-159): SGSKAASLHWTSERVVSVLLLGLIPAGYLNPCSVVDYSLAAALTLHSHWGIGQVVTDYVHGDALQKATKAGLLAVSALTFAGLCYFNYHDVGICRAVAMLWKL

SMILES: C=CC(=O)Nc1cc(Nc2nccc(-c3cn(C)c4ccccc34)n2)c(OC)cc1N(C)CCN(C)C.CS(=O)(=O)O [osimertinib mesylate]
- State 3 respiration driven by succinate at 1XCmax ([1]; 1XCmax): 0
- State 4 respiration driven by succinate at 1XCmax ([1]; 1XCmax): 0
- State 3 respiration driven by succinate at 2.5XCmax ([1]; 2.5XCmax): 0
- State 4 respiration driven by succinate at 2.5XCmax ([1]; 2.5XCmax): 0
- State 3 respiration driven by succinate at 5XCmax ([1]; 5XCmax): 0
- State 4 respiration driven by succinate at 5XCmax ([1]; 5XCmax): 0
- State 3 respiration driven by succinate at 10XCmax ([1]; 10XCmax): 0
- State 4 respiration driven by succinate at 10XCmax ([1]; 10XCmax): 0
- State 3 respiration driven by succinate at 20XCmax ([1]; 20XCmax): 0
- State 4 respiration driven by succinate at 20XCmax ([1]; 20XCmax): 0
- State 3 respiration driven by succinate at 30XCmax ([1]; 30XCmax): 0
- State 4 respiration driven by succinate at 30XCmax ([1]; 30XCmax): 0
- State 3 respiration driven by succinate at 50XCmax ([1]; 50XCmax): 0
- State 4 respiration driven by succinate at 50XCmax ([1]; 50XCmax): 0
- State 3 respiration driven by succinate at 100XCmax ([1]; 100XCmax): 0
- State 4 respiration driven by succinate at 100XCmax ([1]; 100XCmax): 0
- RCC I at 10XCmax ([2]; DMSO treated samples set as 1): 0
- RCC II at 1.0XCmax ([3]; DMSO treated samples set as 1): 0
- RCC II at 2.5XCmax ([3]; DMSO treated samples set as 1): 0
- RCC II at 5XCmax ([3]; DMSO treated samples set as 1): 0
- RCC II at 10XCmax ([3]; DMSO treated samples set as 1): 0
- RCC II at 20XCmax ([3]; 20XCmax, DMSO treated samples set as 1): 0
- RCC II at 30XCmax ([3]; 30XCmax, DMSO treated samples set as 1): 0
- RCC II at 50XCmax [3, 17]: 0
- RCC II at 100XCmax ([3]; 100XCmax, DMSO treated samples set as 1): 0
- RCC III at 100XCmax [4]: 0
- RCC IV at 50XCmax [5]: 0
- RCC V at 5XCmax ([6]; DMSO treated samples set as 1): 0
- RCC V at 50XCmax [6, 17]: 0
- MMP measured by Rhodamine 123 at 1XCmax [7]: 0
- MMP measured by Rhodamine 123 at 2.5XCmax [7]: 0
- MMP measured by Rhodamine 123 at 5XCmax [7]: 0
- MMP measured by Rhodamine 123 at 10XCmax [7]: 0
- MMP measured by Rhodamine 123 at 20XCmax ([7]; 20XCmax): 0
- MMP measured by Rhodamine 123 at 30XCmax ([7]; 30XCmax): 0
- MMP measured by Rhodamine 123 at 50XCmax ([7]; 50XCmax): 0
- MMP measured by Rhodamine 123 at 100XCmax ([7]; 100XCmax): 0
- Swelling 1XCmax [8]: 0
- Swelling 2.5XCmax [8]: 0
- Swelling 5XCmax [8]: 0
- Swelling 10XCmax [8]: 0
- Swelling 20XCmax ([8]; 20XCmax): 0
- Swelling 30XCmax ([8]; 30XCmax): 0
- Swelling 50XCmax ([8]; 50XCmax): 0
- Swelling 100XCmax ([8]; 100XCmax): 0
- note (DMSO stock) [9]: 50 mM will precipitate
- Cytochrome c release 1XCmax [10]: 0
- Cytochrome c release 2.5XCmax [10]: 0
- Cytochrome c release 5XCmax [10]: 0
- Cytochrome c release 10XCmax [10]: 0
- Cytochrome c release 20XCmax ([10]; 20XCmax): 0
- Cytochrome c release 30XCmax ([10]; 30XCmax): 0
- Cytochrome c release 50XCmax ([10]; 50XCmax): 0
- Cytochrome c release 100XCmax ([10]; 100XCmax): 6.58±0.09 percentage of the positive control group
- Cmax ([11]; human, in vivo): 0.5 µM
- Labeling for cardiotoxicity [12]: W&P: QTc Interval Prolongation; Cardiomyopathy
- Potential for cardiotoxicity (based on labeling) [12]: 1
- ROS measured by CM-H2DCFDA at 1XCmax [13]: 0
- ROS measured by CM-H2DCFDA at 2.5XCmax [13]: 0
- ROS measured by CM-H2DCFDA at 5XCmax [13]: 0
- ROS measured by CM-H2DCFDA at 10XCmax [13]: 0
- ROS measured by CM-H2DCFDA at 20XCmax ([13]; 20XCmax): 0
- ROS measured by CM-H2DCFDA at 30XCmax ([13]; 30XCmax): 1.38±0.13
- ROS measured by CM-H2DCFDA at 50XCmax ([13]; 50XCmax): 1.80±0.32
- ROS measured by CM-H2DCFDA at 100XCmax ([13]; 100XCmax): 3.35±0.28

SMILES: C#Cc1cccc(Nc2ncnc3cc(OCCOC)c(OCCOC)cc23)c1 [erlotinib hydrochloride]
- State 3 respiration driven by glutamate/malate at 1XCmax ([1]; 1XCmax): 0
- State 3 respiration driven by succinate at 1XCmax ([1]; 1XCmax): 0
- State 4 respiration driven by glutamate/malate at 1XCmax ([1]; 1XCmax): 0
- State 4 respiration driven by succinate at 1XCmax ([1]; 1XCmax): 0
- State 3 respiration driven by glutamate/malate at 2.5XCmax ([1]; 2.5XCmax): 0
- State 3 respiration driven by succinate at 2.5XCmax ([1]; 2.5XCmax): 0
- State 4 respiration driven by glutamate/malate at 2.5XCmax ([1]; 2.5XCmax): 0
- State 4 respiration driven by succinate at 2.5XCmax ([1]; 2.5XCmax): 0
- State 3 respiration driven by glutamate/malate at 5XCmax ([1]; 5XCmax): 0
- State 3 respiration driven by succinate at 5XCmax ([1]; 5XCmax): 0
- State 4 respiration driven by glutamate/malate at 5XCmax ([1]; 5XCmax): 0
- State 4 respiration driven by succinate at 5XCmax ([1]; 5XCmax): 0
- State 3 respiration driven by glutamate/malate at 10XCmax ([1]; 10XCmax): 0
- State 3 respiration driven by succinate at 10XCmax ([1]; 10XCmax): 0
- State 4 respiration driven by glutamate/malate at 10XCmax ([1]; 10XCmax): 0
- State 4 respiration driven by succinate at 10XCmax ([1]; 10XCmax): 0
- RCC I at 10XCmax [2, 18]: 0
- RCC II at 1.0XCmax [3, 18]: 0
- RCC II at 2.5XCmax [3, 18]: 0
- RCC II at 5XCmax [3, 18]: 0
- RCC II at 10XCmax [3, 18]: 0
- RCC V at 5XCmax [6, 18]: 0
- RCC V at 10XCmax ([6]; 10XCmax, relative to DMSO treated samples): 83.52±2.96
- MMP measured by Rhodamine 123 at 1XCmax [7]: 0
- MMP measured by Rhodamine 123 at 2.5XCmax [7]: 0
- MMP measured by Rhodamine 123 at 5XCmax [7]: 0
- MMP measured by Rhodamine 123 at 10XCmax [7]: 0
- Swelling 1XCmax [8]: 0
- Swelling 2.5XCmax [8]: 0
- Swelling 5XCmax [8]: 0
- Swelling 10XCmax [8]: 0
- Solubility of stock for 50 Cmax ([14]; DMSO stock for 50 Cmax): not soluble
- Solubility of stock for 100 Cmax ([14]; DMSO stock for 100 Cmax): not soluble
- Cytochrome c release 1XCmax [10]: 0
- Cytochrome c release 2.5XCmax [10]: 0
- Cytochrome c release 5XCmax [10]: 0
- Cytochrome c release 10XCmax [10]: 0
- Labeling for cardiotoxicity ([15]; BBW: black box warning, W&P: Warnings and Precautions): W&P: Myocardial Infarction/Ischemia
- Potential for cardiotoxicity (based on labeling) [15]: 1
- Cmax ([11]; read-out: Cmax at µM, therapeutic maximal blood concentration, ref product labeling): 3.44 µM
- Cmax ([11]; therapeutic maximal blood concentration, ref product labeling): 1480 ng/mL
- DILI potential (based on labeling) ([16]; 1 = DILI positive, 0 = negative, ref product labeling): 1
- Labeling for DILI ([16]; in vivo): W&P: fatal DILI
- ROS measured by CM-H2DCFDA at 1XCmax [13]: 0
- ROS measured by CM-H2DCFDA at 2.5XCmax [13]: 0
- ROS measured by CM-H2DCFDA at 5XCmax [13]: 0
- ROS measured by CM-H2DCFDA at 10XCmax [13]: 0
